Results taken from paper PMC11225352, “A multicenter, randomized, double-blind, placebo-controlled ascending dose study to evaluate the safety, tolerability, pharmacokinetics (PK) and pharmacodynamic (PD) effects of Posiphen in subjects with early Alzheimer’s Disease” (Alzheimer's Research & Therapy, 2024).

What was measured:
Assay type in all cases: in vivo, human
Aβ38 [1] = assay: CSF Aβ38 level, screening to day 21 (MSD immunoassay); settings: ANOVA with age and sex as covariates; p = 0.47
Protocol: (§1) For biochemical analysis to derive data for SILK, ^13C6-leucine was analyzed in plasma and CSF by mass spectrometry, and Aβ peptides in CSF were analyzed by immunoprecipitation-mass spectrometry (IP-MS) as previously described, by C2N Diagnostics (St Louis, MO). CSF levels of sAPPα, sAPPβ, Aβ38, 40 and 42 were analyzed by the ADCS Biomarker Core using Mesoscale Discovery (MSD) electrochemiluminescent assays (Mesoscale Discovery, Rockville, MD). Levels of Posiphen and its N1 and N8 metabolites in plasma and CSF were measured by Charles River Laboratories (Montreal, CA) by high-performance liquid chromatographic mass spectrometry, with use of deuterated Posiphen (procured by Charles River Laboratories) as an internal standard.
Changes in CSF biomarkers from the screening to confinement (sample at time of placement of catheter) were compared in the treatment and placebo groups by ANOVA, with models that included age, sex and baseline MMSE, and further analysis stratified by treatment dose. A similar approach was taken to analyze changes in MMSE, ADAS-cog and NPI. Data were analyzed using R (version 4.2.2).

Aβ40 = assay: SILK analysis of CSF Aβ40 (fractional synthesis rate, IP-MS)
Protocol: From June 5, 2017 to December 31, 2021, we conducted the DISCOVER randomized clinical trial at five participating sites, coordinated by the Alzheimer’s Disease Cooperative Study (ADCS) at UCSD, with funding from the National Institute on Aging and investigational product provided by Annovis, Inc. This study was approved by each participating site’s IRB and was registered on https://www.clinicaltrials.gov/ as NCT02925650. The trial was conducted according to the guidelines of good clinical practice (GCP) and was monitored by the ADCS. A Data Safety Monitoring Board (DSMB) reviewed data for each cohort and for the study overall. […]
For the confinement visit, subjects arrived in the early morning after an overnight fast. […] After 36 h, intravenous lines and the CSF catheter were removed, vital signs were measured, physical exam performed, and blood and CSF were sent for routine laboratory studies. […]
For biochemical analysis to derive data for SILK, ^13C6-leucine was analyzed in plasma and CSF by mass spectrometry, and Aβ peptides in CSF were analyzed by immunoprecipitation-mass spectrometry (IP-MS) as previously described, by C2N Diagnostics (St Louis, MO). CSF levels of sAPPα, sAPPβ, Aβ38, 40 and 42 were analyzed by the ADCS Biomarker Core using Mesoscale Discovery (MSD) electrochemiluminescent assays (Mesoscale Discovery, Rockville, MD). […]

Aβ38 [2] = assay: SILK analysis of CSF Aβ38 (fractional synthesis rate); settings: after 21 days
Protocol: as §1
For SILK, the fraction of labeled Aβ for Aβ38, 40, and 42 during 36 h after administration of study drug for each subject was calculated, as described. The FSR measures were calculated by fitting a line to the upslope of the CSF Aβ labeling data. It was assumed that the upslope occurred between hours 6–16 h after the start of confinement. […] The percentage of newly synthesized and degraded Aβ was estimated over 36 h by multiplying the […] concentration of Aβ measured at the start of confinement (i.e. at catheter placement; time = 0) by the percentage of Aβ that contains ^13C6-leucine at each time point. […]

APP = assay: Post hoc comprehensive compartmental modeling of APP production rate from SILK data
Protocol: For SILK, the fraction of labeled Aβ for Aβ38, 40, and 42 during 36 h after administration of study drug for each subject was calculated, as described. The FSR measures were calculated by fitting a line to the upslope of the CSF Aβ labeling data. It was assumed that the upslope occurred between hours 6–16 h after the start of confinement. FSR for treated and untreated subjects were compared by analysis of variance (ANOVA). The percentage of newly synthesized and degraded Aβ was estimated over 36 h by multiplying the […] concentration of Aβ measured at the start of confinement (i.e. at catheter placement; time = 0) by the percentage of Aβ that contains ^13C6-leucine at each time point. This can be used to estimate the AUC of the drug for decreasing the amount of newly produced Aβ [24]. As a post hoc analysis, the FSR measurement was also performed with different assumptions: the timeframe for measuring the upslope was automatically detected based on the slope of the SILK curve (see supplementary materials for method and code). As an additional post hoc analysis, a newer model for SILK that take into count the multiple compartments and CSF and other spaces involved in APP metabolism was also used to estimate APP production rates, as described below.
APP and Aβ production and clearance rates were determined using a recently described comprehensive model. The model accounts for the bi-hourly withdrawal of 6 mL of CSF, which is known to alter the lumbar CSF concentration of Aβ [25]. The model estimates rates of APP production, enzymatic production of Aβ, transport of Aβ from interstitial fluid (ISF) to CSF, enzymatic degradation of Aβ, blood-brain barrier transport of Aβ, as well as CSF mixing throughout the subarachnoid space (SAS) and clearance of CSF from cranial and spinal subarachnoid space (SAS). For the DISCOVER trial, MRI volumetric scans were not available, so CSF volumes (cranial, cisternal and ventricular) were estimated based on the subject’s age using data from the previous study (see Supplementary Materials). […]

CN1CC[C@]2(C)c3cc(OC(=O)Nc4ccccc4)ccc3N(C)[C@H]12 [Posiphen]
CSF Aβ38, Treatment difference (Posiphen – placebo) (Aβ38 [1]): -0.202 (0.27) p = 0.47 pg/mL
effect on FSR for CSF Aβ40 vs. placebo (Aβ40; after 21 days, FSR from hours 6–16 and automated method, no dose-dependent effect): no significant effect
peak in labeling (SILK curve) (Aβ40; single 180 mg per day subject, previous study maximum 24.7 h): about 28 h
effect on FSR estimates for Aβ38 vs. placebo (Aβ38 [2]): no significant effect
APP production, placebo vs 120 mg per day group (APP; model with pre-drug lumbar CSF concentration as covariate): showed significance
APP production rate (APP; single 180 mg per day subject): low
APP production rates (APP; subjects receiving 120 or 180 mg per day, differences not significant by non-parametric analysis): trended lower
